Assay results taken from patent US8790719B2, “Phytocannabinoids in the treatment of cancer” (GW Pharma Limited, priority 2010, dated 2014).
pIC50: −log10 of the molar value. Read-outs that look alike come from different tables or passages of the source.

Columns and labels:
[1] = tested on: MDA-MB-231 breast cancer cell line; test: Cell viability of breast cancer cells (Alamar blue assay); type: cell-based; conditions: Homo sapiens, 72 hours
Procedure: Cells were seeded in presence of FBS in 6 wells multiwell and treated with increased concentrations of compounds for 72 hours. Cell viability was assessed by Alamar blue staining.
Isolated phytocannabinoids were tested on the MDA-MB-231 breast cancer cell line in order to determine whether phytocannabinoids were effective in other types of cancer other than prostate cancer. The different isolated phytocannabinoids chosen for this experiment were: CBGA, CBDA, CBDV, CBD, THCV and THC.

U87 glioma cells = test: Viability of U87 glioma cells (MTT assay), THC, CBD, TMZ alone and combined; type: cell-based, human
[2] = tested on: human glioma xenograft tumours; test: Human glioma xenograft tumour volume; type: in vivo; parameters: unit not given here
Procedure: The phytocannabinoids were also tested with the TMZ as is detailed in Table 13.2 below.

[3] = tested on: recurrent glioblastoma multiforme; conditions: nine patients, THC intra-tumourally; 95% confidence interval: 15-33; cited from earlier work
GPR55 = target: T1, GPR55 (Homo sapiens, UniProt Q9Y2T6); test: ERK Alphascreen assay using GPR55-HEK cells; type: cell-based
T1 construct: expressed in transfected cells; host or cells: HEK cells (GPR55-HEK)
T1 sequence (Q9Y2T6 whole entry, species assumed): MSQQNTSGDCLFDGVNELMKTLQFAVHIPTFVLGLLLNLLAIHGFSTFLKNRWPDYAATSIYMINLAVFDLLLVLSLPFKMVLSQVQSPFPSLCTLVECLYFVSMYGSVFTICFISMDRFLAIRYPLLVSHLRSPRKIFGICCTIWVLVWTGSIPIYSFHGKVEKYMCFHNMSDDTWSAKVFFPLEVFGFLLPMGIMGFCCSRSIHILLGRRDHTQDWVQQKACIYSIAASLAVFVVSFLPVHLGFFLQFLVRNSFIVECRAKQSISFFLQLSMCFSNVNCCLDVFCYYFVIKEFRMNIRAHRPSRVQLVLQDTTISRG
Description: An ERK Alphascreen assay was undertaken using GPR55-HEK cells.

DU-145 = test: Cell vitality (MTT assay), DU-145; type: cell-based; conditions: Homo sapiens, read-out: IC50 on cell vitality
Procedure: (§1) Cells were seeded in presence of FBS in 6 wells multiwell with a density of 8×10^4 cells/well (DU-145) or 1×10^5 cells/well (LNCaP). After 7 hours, cells were starved of dihydrotestosterone (DHT) for 15 hours and treated with increased concentrations of compounds for 24 or 48 hours (absence of serum was maintained during the treatments). Cell viability was assessed by MTT staining.
(§2) Phytocannabinoid BDS and their respective isolated phytocannabinoids were tested in both the hormone-insensitive (DU-145) prostate cancer cells and hormone-sensitive (LNCaP) prostate cancer cells. Three different phytocannabinoids were chosen for this experiment: CBG BDS and isolated compound, CBC BDS and isolated compound and CBD BDS and isolated compound.
(§3) The experiment was repeated in the hormone-insensitive (DU-145) prostate cancer cells and hormone-sensitive (LNCaP) prostate cancer cells that had not been starved of DHT. Here just the CBG BDS and isolated CBG are illustrated in Table 7.2 below.

LNCaP = test: Cell vitality (MTT assay), LNCaP; type: cell-based; conditions: Homo sapiens, read-out: IC50 on cell vitality
Procedure: as §1, §2, §3

[4] = tested on: Aberrant crypt focus (ACF), polyps and tumours; test: Colon carcinogenesis in the mouse induced by azoxymethane; type: in vivo; conditions: i.p. three times per week for three months; FIG. 5 c), FIG. 6 c)
Description: Aberrant crypt focus (ACF), polyps and tumours were induced in the mouse by the carcinogenic substance azoxymethane. The phytocannabinoids were given (i.p.) to the mice three times per week for a period of three months. The COX-2 inhibitor celecoxib was used as a positive control.

Glioma cells = test: Human glioma cell vitality (MTT assay); type: cell-based; conditions: read-out: IC50 on glioma cell vitality
Procedure: Cells were seeded in presence of FBS in 6 wells multiwell with a density of 8×10^4 cells/well. Glioma cells were treated with increased concentrations of compounds and cell viability was assessed by MTT staining.
CBD BDS and isolated CBD, CBG and CBDV were tested.

[5] = tested on: subcutaneously implanted U87 human glioma cells; conditions: s.c., 0.5 mg/mouse; cited from earlier work

| SMILES | pIC50 [1] | Cell Viability (%) (U87 glioma cells; cannabinoid 1 μM (each), Table 12.2) | Cell Viability (%) (U87 glioma cells; dose level 0.7 μM (each)) | Cell Viability (%) (U87 glioma cells; dose level 0.9 μM (each)) | Cell Viability (%) (U87 glioma cells; dose level 1.2 μM (each)) | Tumour volume (increase from day 1) ([2]; dose level 3.7 mg/kg (each)) | Tumour volume (increase from day 1) ([2]; dose level 7.5 mg/kg (each)) | Tumour volume (increase from day 1) ([2]; dose level 15.0 mg/kg) | Median survival from the beginning of cannabinoid administration [3] | Effect at GPR55 (GPR55) | pIC50 (DU-145; DU-145, 24 h) | pIC50 (DU-145; DU-145, 48 h) | pIC50 (LNCaP; 24 h) | pIC50 (LNCaP; 48 h) | numbers of tumours per animal [4] | pIC50 (Glioma cells) | growth of subcutaneously implanted U87 human glioma cells [5] |
| --- | --- | --- | --- | --- | --- | --- | --- | --- | --- | --- | --- | --- | --- | --- | --- | --- | --- |
| CCCCCc1cc(O)c2c(c1)OC(C)(C)[C@@H]1CCC(C)=C[C@@H]21 [THC, Tetrahydrocannabinol] | < 5.00 | 115% | 100% | 92% | 80% | 8.7 | 8.5 | 5.8 | 24 weeks |  |  |  |  |  |  |  |  |
| C=C(C)[C@@H]1CCC(C)=C[C@H]1c1c(O)cc(CCCCC)cc1O [CBD, Cannabidiol] | 5.30 |  |  |  |  | 9.1 | 8.9 | 7.6 |  | Antagonist | 5.26 | 5.31 | 5.28 | 5.25 | significantly reduced the numbers of tumours per animal | 5.05 | significantly inhibited the growth |
